From ChEMBL document CHEMBL4190285, “Borapetoside E, a Clerodane Diterpenoid Extracted from Tinospora crispa, Improves Hyperglycemia and Hyperlipidemia in High-Fat-Diet-Induced Type 2 Diabetes Mice” (J Nat Prod, 2017)
Activity calls are given as the source filed them.

What was measured:
Assay type in all cases: functional, organism-based
Mus musculus [1] = assay: Down regulation of ABCG5 mRNA expression in HFD-induced obese C57BL/6J mouse liver at 20 to 40 mg/kg, ip administered twice daily for 2.5 days measured at 2 hrs post last dose by RT-PCR analysis
Mus musculus [2] = assay: Increase in oxygen consumption in HFD-induced obese C57BL/6J mouse at 40 mg/kg, ip administered twice daily for 2.5 days incubated for 12.6 hrs under dark condition followed by redosing on day 3 for 2 times
Mus musculus [3] = assay: Down regulation of HMGCS mRNA expression in HFD-induced obese C57BL/6J mouse liver at 20 to 40 mg/kg, ip administered twice daily for 2.5 days measured at 2 hrs post last dose by RT-PCR analysis
Mus musculus [4] = assay: Down regulation of HMGCS mRNA expression in HFD-induced obese C57BL/6J mouse adipose tissue at 20 to 40 mg/kg, ip administered twice daily for 2.5 days measured at 2 hrs post last dose by RT-PCR analysis
Mus musculus [5] = assay: Improvement in insulin resistance in high fat diet-induced obese C57BL/6J mouse assessed as reduction in fasting serum insulin level at 40 mg/kg, ip pretreated twice daily for 2.5 days followed by insulin challenge at 2 hrs post last dose measured up to 2 hrs by ELISA based ITT

Measured: Activity

COC(=O)C1=CCC[C@H]2[C@](C)(C[C@@H](O[C@@H]3O[C@H](CO)[C@@H](O)[C@H](O)[C@H]3O)c3ccoc3)[C@H]3C[C@H](OC3=O)[C@@]12C
active: all assays above
